Data from patent US20090270363A1, “2-Aryl- and 2-Heteroarylthiazolyl Compounds, Methods for Their Preparation and Use Thereof” (Wyeth, priority 2008, published 2009).

Legend:
Format in all cases: cell-based
[1] = tested on: HCT116 cells (Securin+/+, securin parental, HCT116 FB); assay: Growth inhibition (sulforhodamine B, 5 days) of securin parental cells; conditions: Homo sapiens, HCT-116, 120 h, SRB
Experimental: (§1) IC50 analysis was performed for selected fused bicyclic 2-aryl or 2-heteroarylthiazolyl compounds that were tested on HCT116 cells and Securin “knock out” cell lines.
(§2) Cell Culture—HCT116 and securin “knock out” cells. HCT116 and securin “knock out” cells (D8 and F3) were grown in RPMI+5% fetal bovine serum and gentamycin. They were maintained in a humidified 37° C. incubator with 5% CO2. Since the securin “knock out” cells have active chromosomal instability, cells were used at a low passage number of 2-13 passages. At or before passage 13 a new vial of cells was thawed and used for the screen. Cell seeding—HCT116 cells and securin “knock out” cells were trypsinized and suspended in RPMI+5% FBS at a density of 27,000 cells/mL. HCT116 and securin “knock out” cells were seeded separately in wells of a 96-well plate (Falcon Cat # 35-3872) at a cell density of 4000 cells per well. Cells were seeded in 150 μL of RPMI media containing 5% FBS and gentamycin. Cell seeding was performed under aseptic conditions. Cells were allowed to attach and grow overnight in a humidified 37° C. incubator.
(§3) Compound Dilution and Dispensation. A series of stock solutions, 10 mg/mL of fused bicyclic 2-aryl- or 2-heteroarylthiazolyl compounds to be tested, were brought to room temperature. The compounds were diluted 1:50 in RPMI+5% FBS (Highest concentration 200 μg/mL). The compounds were then serially diluted 1:3 across a deep-well titration plate resulting in final concentrations in the plate of 200, 66.7, 22.2, 7.4, 2.4, 0.8, 0.27, 0.091, 0.03, 0.01, and 0.0034 μg/mL with one well left without a compound. 50 μL of this dilution series was added to the 150 μL of cells to result in a final concentration of compound in with the cells of 50, 16.6, 5.5, 1.8, 0.6, 0.2, 0.068, 0.023, 0.0076, 0.0025, and 0.00084 μg/mL. The dilution and addition of compounds to the plates is performed using a Multimek 96 Robot (Beckman Coulter).
(§4) Incubation and analysis. After dosing, the cells in the 96 well plates were returned to the humidified 37° C. incubator. The compounds remained on the cells for 5 days. After 5 days, the cells were fixed to the plates with the addition of 50 μL of 50% (vol/vol) Trichloro Acetic Acid ([…]). The cells were fixed at 4° C. for 1 hour. The plates were washed 5 times in distilled water and allowed to dry. The cells were stained with 0.4% sulforhodamine B (Sigma) in 1% acetic acid. The cells were stained for 15 minutes at room temperature. The plates were then washed 3 times in 1% acetic acid. The plates were dried and the dye was solubilized in 10 mM Tris at pH 8.0. The plates were read on the Absorbence 560 setting on a Victor^2 V Model 1420 Multilabel HTS counter (Perkin Elmer).
(§5) Analysis of Results—IC50 data. Absorbence data was read off of the Victor and was converted to a percentage of the control (untreated) values. IC50 values were graphed and the point at which a 50% inhibition of the control level was determined. […] If the model was not able to determine an IC50, the IC50 was assigned to the lowest concentration that gives a 50% or greater decrease in absorbence compared to control levels. If the calculated IC50 value for a cell line exceeds the top concentration for the assay (typically 50 μg/mL), the assay was scored as >50.
(§6) Selectivity Ratio. The Selectivity Ratio is the ratio of IC50s between the parent cell line and the knock out cell line and is always a positive number and is typically an integer.

[2] = tested on: securin "knock out" cells F3 (Securin-/-); assay: Growth inhibition (sulforhodamine B, 5 days) of securin knock out cells F3; conditions: for IC50: 120 h, securin knock out F3 cells, 5 days, SRB; for Selectivity Ratio F3: IC50 HCT116 / IC50 securin KO F3
Experimental: as §1, §2, §3, §4, §5, §6

[3] = tested on: securin "knock out" cells D8 (Securin-/-); assay: Growth inhibition (sulforhodamine B, 5 days) of securin knock out cells D8; conditions: for IC50: 120 h, securin knock out D8 cells, 5 days, SRB; for Selectivity Ratio D8: IC50 HCT116 / IC50 securin KO D8
Experimental: as §1, §2, §3, §4, §5, §6

| Structure (SMILES) | IC50 [1] [µM] | IC50 [2] [µM] | Selectivity Ratio F3 [2] | IC50 [3] [µM] | Selectivity Ratio D8 [3] |
| --- | --- | --- | --- | --- | --- |
| OC1CCCc2nc(-c3ccc(N4CCNCC4)cc3)sc21 (centres unmarked) [Example 163, 2-(4-piperazin-1-yl-phenyl)-4,5,6,7-tetrahydrobenzothiazol-7-ol] | 31.6 | 22.9 | 1 | 25.9 | 1 |
| CC#CCOC(=O)c1cc(N(C)C)ccc1-c1nc2c(s1)C(O)CCC2 (centres unmarked) [Example 133, but-2-yn-1-yl 5-(dimethylamino)-2-(7-hydroxy-4,5,6,7-tetrahydro-1,3-benzothiazol-2-yl)benzoate] | 96.5 | 1.8 | 54 | 1.1 | 87 |
| CN(C)c1ccc(-c2nc3c(s2)C(O)CC3)cc1 (centres unmarked) [Example 5, 2-[4-(dimethylamino)phenyl]-5,6-dihydro-4H-cyclopenta[d][1,3]thiazol-6-ol] | 54.3 | 1.8 | 30 | 1.3 | 43 |
| CN(C)c1ccc(-c2nc3c(s2)[C@H](O)CC3)cc1 [Example 6, (6R)-2-[4-(dimethylamino)phenyl]-5,6-dihydro-4H-cyclopenta[d][1,3]thiazol-6-ol] | 43.4 | 0.84 | 52 | 0.46 | 95 |
| CN(C)c1ccc(-c2nc3c(s2)C(O)CCC3)c(C(=O)OCc2cccnc2)c1 (centres unmarked) [Example 126, pyridin-3-ylmethyl 5-(dimethylamino)-2-(7-hydroxy-4,5,6,7-tetrahydro-1,3-benzothiazol-2-yl)benzoate] | 100 | 2.5 | 40 | 1.9 | 54 |
| O=[N+]([O-])c1cc(N2CCCC2)ccc1-c1nc2c(s1)C(O)CCC2 (centres unmarked) [Example 151, 2-(2-nitro-4-pyrrolidin-1-ylphenyl)-4,5,6,7-tetrahydro-1,3-benzothiazol-7-ol] | 38 | 0.053 | 724 | 0.046 | 832 |
| C#CCOC(=O)c1cc(N(C)C)ccc1-c1nc2c(s1)C(O)CCC2 (centres unmarked) [Example 129, prop-2-yn-1-yl 5-(dimethylamino)-2-(7-hydroxy-4,5,6,7-tetrahydro-1,3-benzothiazol-2-yl)benzoate] | 77.8 | 0.45 | 172 | 0.36 | 216 |
| CN(C)c1ccc(-c2nc3c(s2)C(O)CCC3)c(C=O)c1 (centres unmarked) [Example 67] | 31 | 0.15 | 206 | 0.059 | 525 |
| CC(=O)c1cc(N(C)C)ccc1-c1nc2c(s1)C(O)CCC2 (centres unmarked) [Example 74, 1-[5-(dimethylamino)-2-(7-hydroxy-4,5,6,7-tetrahydro-1,3-benzothiazol-2-yl)phenyl]ethanone] | 100 | 0.18 | 558 | 0.15 | 650 |
| COC(=O)c1cc(N(C)C)ccc1-c1nc2c(s1)[C@H](O)CCC2 [Example 165, methyl 5-(dimethylamino)-2-[(7R)-7-hydroxy-4,5,6,7-tetrahydro-1,3-benzothiazol-2-yl]benzoate] | 100 | 0.74 | 136 | 0.29 | 348 |
